Assays:
Androgen Receptor = molecular target: T1, Androgen Receptor (Homo sapiens, UniProt P10275); assay: Cell-based ligand (R1881) displacement assay, binary binding to AR; details: read-out: binary binding potency IC50^AR in cells
T1 construct: expressed in transfected cells; host or cells: HEK293
T1 sequence (P10275 1-920): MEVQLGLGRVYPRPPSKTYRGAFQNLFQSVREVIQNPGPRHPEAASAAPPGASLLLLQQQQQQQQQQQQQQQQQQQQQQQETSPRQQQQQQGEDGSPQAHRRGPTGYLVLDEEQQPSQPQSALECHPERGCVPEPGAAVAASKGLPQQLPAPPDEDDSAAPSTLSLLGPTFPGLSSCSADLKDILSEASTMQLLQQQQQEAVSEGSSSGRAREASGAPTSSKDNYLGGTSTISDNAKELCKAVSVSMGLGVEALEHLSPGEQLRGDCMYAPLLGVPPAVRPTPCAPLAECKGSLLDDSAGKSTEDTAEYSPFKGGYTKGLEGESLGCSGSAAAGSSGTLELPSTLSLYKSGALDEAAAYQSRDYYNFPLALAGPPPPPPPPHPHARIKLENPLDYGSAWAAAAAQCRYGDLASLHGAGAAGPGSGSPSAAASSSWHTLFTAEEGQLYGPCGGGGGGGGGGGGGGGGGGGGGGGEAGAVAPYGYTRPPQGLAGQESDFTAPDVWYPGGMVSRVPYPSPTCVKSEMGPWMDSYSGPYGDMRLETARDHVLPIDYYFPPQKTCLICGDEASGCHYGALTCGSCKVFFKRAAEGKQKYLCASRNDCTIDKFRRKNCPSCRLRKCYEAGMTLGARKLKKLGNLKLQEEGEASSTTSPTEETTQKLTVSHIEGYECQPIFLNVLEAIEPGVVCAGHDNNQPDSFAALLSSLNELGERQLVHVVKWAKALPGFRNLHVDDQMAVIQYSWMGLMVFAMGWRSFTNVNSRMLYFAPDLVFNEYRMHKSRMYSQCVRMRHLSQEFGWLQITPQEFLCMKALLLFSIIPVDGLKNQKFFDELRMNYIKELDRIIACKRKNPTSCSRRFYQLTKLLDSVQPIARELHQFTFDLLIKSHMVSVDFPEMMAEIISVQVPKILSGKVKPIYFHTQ
Protocol: It is composed of an AR-binding warhead which is connected to a VHL-binding warhead by a linear connector. […] MD simulation of a ternary system composed of AR ligand-binding domain, a ligand and the complex of VHL with elongin B (EB) and elongin C (EC) in the presence of explicit water was performed. The ligand in the simulation is a close analog of the ligand L above and only differs from the ligand L above by having a methyl substitution at the 4-position of the thiazole group.
(§1) The connector linking the AR-binding warhead and the VHL-binding warhead was systematically probed from 4 to 23 atoms. The AR degradation potency DC50 and the maximum percentage of degradation Dmax of AR in LNCaP cells were measured for each of these compounds. […] The binary binding potency with respect to AR was also measured for some of the compounds by the cell-based ligand (R1881) displacement assay. The ratio α between the AR-binding potency and the degradation potency are calculated when it is possible.
The experimental protocol is based on reference Gustafson et al. (Angew. Chem. Int. Ed., 54: 9659-9662). HEK293 cells were transiently transfected using Fugene 6 to overexpress wildtype Androgen Receptor. During binding assay, transfected cells were grown in DMEM supplemented with 10% charcoal-stripped FBS. Cells were treated for two hours with the indicated competitor compound in the presence of 0.1 nM ^3H-R1881. Cells were washed in PBS, lysed in 200 ul lysis buffer (2% SDS, 10% Glycerol, 10 mM Tris-HCl [pH 6.8]), and cleared with the addition of 300 ul of 10 mM Tris-HCl (pH 8.0). 300 ul of these lysates were added to 3 mL of Cytoscint (MP Biomedicals), and scintillation counting was performed on a Beckman LS 6000SC instrument. Counts (cpm) were normalized to total protein amount in each sample, as determined via the Pierce BCA Protein Assay Kit (Thermo Scientific) per the manufacturer's instructions.

AR = molecular target: T2, AR (Homo sapiens, UniProt P10275+P40337, T878A); assay: AR degradation in LNCaP cells (androgen receptor ELISA); assay type: cell-based; details: for DC50 / Dmax / maximum AR degradation Dmax: LNCaP cells; for DC50: read-out: AR degradation potency DC50; for Dmax: read-out: maximum AR degradation Dmax
T2 construct: degradation Dmax of AR in LNCaP cells; endogenous in cells; host or cells: LNCaP
T2 sequence (Q15370 whole entry): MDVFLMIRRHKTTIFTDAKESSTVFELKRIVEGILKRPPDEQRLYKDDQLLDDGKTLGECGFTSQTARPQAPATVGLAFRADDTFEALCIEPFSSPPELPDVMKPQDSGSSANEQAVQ
T2 sequence (P40337 whole entry): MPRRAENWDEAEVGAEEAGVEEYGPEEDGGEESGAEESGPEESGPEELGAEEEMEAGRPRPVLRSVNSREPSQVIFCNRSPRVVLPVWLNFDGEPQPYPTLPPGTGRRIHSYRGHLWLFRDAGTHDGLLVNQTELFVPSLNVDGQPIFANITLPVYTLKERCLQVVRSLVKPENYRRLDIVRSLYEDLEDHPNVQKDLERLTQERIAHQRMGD
T2 sequence (P10275 whole entry T878A): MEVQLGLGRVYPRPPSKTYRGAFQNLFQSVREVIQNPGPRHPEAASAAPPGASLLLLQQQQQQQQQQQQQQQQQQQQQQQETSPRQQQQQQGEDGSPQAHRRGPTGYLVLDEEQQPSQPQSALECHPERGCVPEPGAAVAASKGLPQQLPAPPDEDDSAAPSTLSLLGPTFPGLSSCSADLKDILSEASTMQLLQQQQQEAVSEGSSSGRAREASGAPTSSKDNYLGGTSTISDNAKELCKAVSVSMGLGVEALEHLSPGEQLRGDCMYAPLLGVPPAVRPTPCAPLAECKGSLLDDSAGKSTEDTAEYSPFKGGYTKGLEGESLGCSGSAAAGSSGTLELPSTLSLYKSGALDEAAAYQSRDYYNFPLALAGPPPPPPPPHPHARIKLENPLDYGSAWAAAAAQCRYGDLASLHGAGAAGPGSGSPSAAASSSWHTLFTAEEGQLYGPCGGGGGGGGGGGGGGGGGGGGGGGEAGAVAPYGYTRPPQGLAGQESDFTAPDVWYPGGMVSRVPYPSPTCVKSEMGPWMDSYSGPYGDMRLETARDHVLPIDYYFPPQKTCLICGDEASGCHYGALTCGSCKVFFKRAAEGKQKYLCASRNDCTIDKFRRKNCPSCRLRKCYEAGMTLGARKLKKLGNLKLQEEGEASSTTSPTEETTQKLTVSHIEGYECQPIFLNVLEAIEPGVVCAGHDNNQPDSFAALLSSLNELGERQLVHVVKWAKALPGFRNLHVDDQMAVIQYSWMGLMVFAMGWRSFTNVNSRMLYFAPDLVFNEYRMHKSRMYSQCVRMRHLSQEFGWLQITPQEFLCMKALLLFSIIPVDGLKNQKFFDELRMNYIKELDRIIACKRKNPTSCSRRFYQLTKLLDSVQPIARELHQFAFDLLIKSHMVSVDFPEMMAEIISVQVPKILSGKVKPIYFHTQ
T2 sequence (Q15369 whole entry, further chain): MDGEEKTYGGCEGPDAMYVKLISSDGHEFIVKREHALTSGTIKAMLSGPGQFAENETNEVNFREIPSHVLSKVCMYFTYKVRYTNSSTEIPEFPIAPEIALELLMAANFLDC
Protocol: as §1
Androgen Receptor ELISA Assay
The protocols used with VCaP cells are described below. The androgen receptor ELISA assay was performed using PathScan AR ELISA (Cell Signaling Catalog #12850) according to the following assay steps: […]

SMILES | IC50 (Androgen Receptor) [nM] | DC50 (AR) [nM] | Dmax (AR) [%] | ratio α between AR-binding potency IC50 and degradation potency DC50 (AR) | maximum AR degradation Dmax (AR) [%]
Cc1ncsc1-c1ccc(CNC(=O)[C@@H]2C[C@@H](O)CN2C(=O)[C@@H](NC(=O)CCCOc2ccc(N3C(=S)N(c4ccc(C#N)c(C(F)(F)F)c4)C(=O)C3(C)C)cc2)C(C)(C)C)cc1 [Compound 1] | 970 | > 3000 | 35 |  | 
Cc1ncsc1-c1ccc(CNC(=O)[C@@H]2C[C@@H](O)CN2C(=O)[C@@H](NC(=O)COCCOc2ccc(N3C(=S)N(c4ccc(C#N)c(C(F)(F)F)c4)C(=O)C3(C)C)cc2)C(C)(C)C)cc1 [Compound 2] | 2140 | 1700 |  | <1 | 51
Cc1ncsc1-c1ccc(CNC(=O)[C@@H]2C[C@@H](O)CN2C(=O)[C@@H](NC(=O)COCCCOCCCCCOc2ccc(N3C(=S)N(c4ccc(C#N)c(C(F)(F)F)c4)C(=O)C3(C)C)cc2)C(C)(C)C)cc1 [Compound 9] | 810 | 34.4 |  | 23.5 | 83
Cc1ncsc1-c1ccc(CNC(=O)[C@@H]2C[C@@H](O)CN2C(=O)[C@@H](NC(=O)COCCCCOCCCCCOc2ccc(N3C(=S)N(c4ccc(C#N)c(C(F)(F)F)c4)C(=O)C3(C)C)cc2)C(C)(C)C)cc1 [Compound 10] |  | 60 |  |  | 77
Cc1ncsc1-c1ccc(CNC(=O)[C@@H]2C[C@@H](O)CN2C(=O)[C@@H](NC(=O)COCCOCCOCCCCCOc2ccc(N3C(=S)N(c4ccc(C#N)c(C(F)(F)F)c4)C(=O)C3(C)C)cc2)C(C)(C)C)cc1 [Compound 11] | 1150 | 11 |  | 105 | 60
Cc1ncsc1-c1ccc(CNC(=O)[C@@H]2C[C@@H](O)CN2C(=O)[C@@H](NC(=O)COCCOCCOCCCOCCOCCOc2ccc(N3C(=S)N(c4ccc(C#N)c(C(F)(F)F)c4)C(=O)C3(C)C)cc2)C(C)(C)C)cc1 [Compound 14] | 4950 | 220 | 52 |  | 
Cc1ncsc1-c1ccc(CNC(=O)[C@@H]2C[C@@H](O)CN2C(=O)[C@@H](NC(=O)COCCOCCOCCCCOCCOCCOc2ccc(N3C(=S)N(c4ccc(C#N)c(C(F)(F)F)c4)C(=O)C3(C)C)cc2)C(C)(C)C)cc1 [Compound 15] | 3480 | 29 | 58 |  | 
Cc1ncsc1-c1ccc(CNC(=O)[C@@H]2C[C@@H](O)CN2C(=O)[C@@H](NC(=O)COCCOCCOCCOCCOCCOCCOc2ccc(N3C(=S)N(c4ccc(C#N)c(C(F)(F)F)c4)C(=O)C3(C)C)cc2)C(C)(C)C)cc1 [Compound 16] | 1750 | 3000 | 90 |  | 
Cc1ncsc1-c1ccc(CNC(=O)[C@@H]2C[C@@H](O)CN2C(=O)[C@@H](NC(=O)COCCOCCCCOCCCCOCCOCCOc2ccc(N3C(=S)N(c4ccc(C#N)c(C(F)(F)F)c4)C(=O)C3(C)C)cc2)C(C)(C)C)cc1 [Compound 17] | 1420 | > 3000 | 43 |  | 
Cc1ncsc1-c1ccc(CNC(=O)[C@@H]2C[C@@H](O)CN2C(=O)[C@@H](NC(=O)COCCOCCCCCOCCCCCOCCOCCOc2ccc(N3C(=S)N(c4ccc(C#N)c(C(F)(F)F)c4)C(=O)C3(C)C)cc2)C(C)(C)C)cc1 [Compound 18] | 960 | > 3000 |  | <1 | 47

Reference: patent US12569464B2, “Protein-protein interaction inducing technology” (Arvinas Operations, Inc., priority 2016, dated 2026)
